IC50 data for 2 molecules are collected here from patent EP0528030B1, “ANTITUMOR BE-13793C DERIVATIVE” (BANYU PHARMACEUTICAL CO., LTD., priority 1990, dated 1991).

What all share (assay type): cell-based
Assay [1] deals with human lung cancer PC13. Briefly: Cancer cell proliferation inhibition (sulforhodamine B staining), PC13. The conditions noted are these: PC-13, 72 hours culture with test solution, RPMI-160 medium containing 10% fetal bovine serum. On the procedure: (§1) A test compound (20 mg) was dissolved in dimethyl sulfoxide (1 ml) and successively diluted into test solutions.
(§2) DMEM medium containing 10% fetal bovine serum was used for a human gastric cancer cell MKN45 and a human colon cancer cell LS180, and […] medium containing 10% fetal bovine serum was used for human lung cancer PC13.
(§3) 100 µl portions of the cell-culturing medium containing 3×10^3 cancer cells were put in a 96-hole microplate, culture was carried out under 5% CO2 at 37°C for 24 hours, 11 µl portions of the above test solution were added, the mixtures were subjected to culture under 5% CO2 at 37°C for further 72 hours, and then the cells were fixated with 50% trichloroacetic acid and stained with 0.4% sulforhodamine B. The dye was extracted from the stained cells with 10 mM Tris solution, and absorbance at 540 nm was measured and compared with that in the control group. […]

Assay [2] deals with human gastric cancer cell MKN45. In words: Cancer cell proliferation inhibition (sulforhodamine B staining), MKN45. The conditions noted are these: MKN-45, 72 hours culture with test solution, DMEM medium containing 10% fetal bovine serum. The method, then:
as §1, §2, §3
(In general: In SRB staining, fixed cells bind dye roughly in proportion to their protein.)

Assay [3] deals with human colon cancer cell LS180. Briefly: Cancer cell proliferation inhibition (sulforhodamine B staining), LS180. The conditions noted are these: 72 hours culture with test solution, DMEM medium containing 10% fetal bovine serum. On the procedure: as §1, §2, §3

The structures appear in SMILES notation. ≈ marks a conversion by molar mass, not a printed value. Some results are limits rather than exact numbers.

The IC50 is the concentration at which inhibition is half-maximal.

In the case of `O=C1NC(=O)c2c1c1c3cccc(O)c3[nH]c1c1c2c2cccc(O)c2n1[C@@H]1O[C@H](CO)[C@@H](O)[C@H](O)[C@H]1O` [Example 1, 12,13-dihydro-1,11-dihydroxy-13-(β-D-glucopyranosyl)-5H-indolo[2,3-a]pyrrolo[3,4-c]carbazole-5,7(6H)-dione], the IC50 in assay [1] was 1.7 µg/mL (≈ 3.27 µM); in assay [2], 0.28 µg/mL (≈ 0.539 µM); in assay [3], 1.65 µg/mL (≈ 3.18 µM).

In the case of `O=C1NC(=O)c2c1c1c3cccc(O)c3[nH]c1c1[nH]c3c(O)cccc3c21` [BE-13793C, 12,13-dihydro-1,11-dihydroxy-5H-indolo[2,3-a]pyrrolo[3,4-c]-carbazole-5,7(6H)-dione], the IC50 is 12.5 µg/mL (≈ 35 µM) in assay [1], above 50 µg/mL in assay [2] and above 50 µg/mL in assay [3].
